Values of other authors in patent publication US20070191228A1, “Natural herbicide” (priority 2005, published 2007).

Tests used:
[1] = tested on: sorghum (Sorghhum bicolor (L.)); conditions: Owens 1973
[2] = tested on: large crabgrass (Digitaria sanguimalis); conditions: Owens 1973

N[C@H](CO)CO/C=C/[C@H](N)C(=O)O [Rhizobitoxine, rhizobitoxine]
herbicidal activity [1]: herbicidal
herbicidal activity [2]: herbicidal
